The target of assay [1] is Adenosine receptor A2a (Homo sapiens, UniProt P29274). As to the kind of experiment: Displacement of [3H]-SCH58261 from recombinant human adenosine A2A receptor expressed in HEK293 cell membrane incubated for 15 to 30 mins by Topcount scintillation counter assay. Format: cell membranes.
Assay [2] addresses T1, Adenosine receptor A2b (Homo sapiens, UniProt P29275).
T1 sequence (P29275 whole entry): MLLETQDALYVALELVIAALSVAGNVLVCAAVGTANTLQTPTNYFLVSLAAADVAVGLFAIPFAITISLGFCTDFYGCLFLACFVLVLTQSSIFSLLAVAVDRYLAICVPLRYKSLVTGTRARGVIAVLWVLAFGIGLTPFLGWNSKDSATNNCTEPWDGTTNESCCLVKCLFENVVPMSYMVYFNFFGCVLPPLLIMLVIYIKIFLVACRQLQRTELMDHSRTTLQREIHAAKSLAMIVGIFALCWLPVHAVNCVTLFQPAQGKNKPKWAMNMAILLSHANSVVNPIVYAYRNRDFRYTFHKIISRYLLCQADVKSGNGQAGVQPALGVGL
As to the kind of experiment: Binding affinity to recombinant human adenosine A2B receptor expressed in HEK293 cell membrane incubated for 15 to 30 mins by Topcount scintillation counter assay. Format: cell membranes.

SMILES strings stand for the structures.

Chain of Adenosine receptor A2a (P29274 whole entry): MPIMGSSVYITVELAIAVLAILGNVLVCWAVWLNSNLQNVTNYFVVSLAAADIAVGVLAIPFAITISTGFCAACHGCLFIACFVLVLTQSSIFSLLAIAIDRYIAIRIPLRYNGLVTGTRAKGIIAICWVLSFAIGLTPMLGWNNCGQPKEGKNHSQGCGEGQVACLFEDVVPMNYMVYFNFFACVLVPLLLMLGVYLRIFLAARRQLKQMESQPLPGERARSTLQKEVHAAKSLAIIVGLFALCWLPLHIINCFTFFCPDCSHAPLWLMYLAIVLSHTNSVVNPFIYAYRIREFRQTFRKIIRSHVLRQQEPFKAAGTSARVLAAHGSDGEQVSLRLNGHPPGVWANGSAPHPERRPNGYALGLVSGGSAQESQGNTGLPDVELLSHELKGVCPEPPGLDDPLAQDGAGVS

What is called IC50 is the concentration needed to halve the response being measured. Turning to `COc1cccc2c1nc(N)n1nc(C3CC3c3ccc4c(c3)CCNC4)nc21` (stereo unspecified), the figures for the 50% inhibitory concentration (IC50) in assay [1] and in assay [2] were 1.1 nM and 3.1 nM, respectively.
On to `COc1cccc2c1nc(N)n1nc([C@H]3C[C@H](c4ncc(C(C)(C)N)cc4C)C3)nc21`, for which the IC50 in assay [2] came out at 1.6 nM.
As for `COc1cccc2c1nc(N)n1nc([C@H]3C[C@H](c4ccc(C(C)(C)O)cn4)C3)nc21`, in assay [2], the half-inhibitory concentration (IC50) is 3.3 nM.
As to `COc1cccc2c1nc(N)n1nc([C@H]3C[C@H](c4ncc(C(C)(C)N)cc4Cl)C3)nc21`, the IC50 in assay [1] turned out to be 0.8 nM; in assay [2], 2.7 nM.

These data come from ChEMBL document CHEMBL5370695, “Novel Adenosine Receptor Antagonists for Treating Cancer and Immune-Related Disorders” (ACS Med Chem Lett, 2023).
